Activity calls are given as the source filed them. The rule behind the calls is not given here.
Biological target: Transient receptor potential cation channel subfamily M member 8 (Mus musculus) (UniProt Q8R4D5)
Settings: Dorsal root ganglion, HEK T-REx, 5 to 100 uM

Transient receptor potential cation channel subfamily M member 8 (Mus musculus), sequence (Q8R4D5 whole entry): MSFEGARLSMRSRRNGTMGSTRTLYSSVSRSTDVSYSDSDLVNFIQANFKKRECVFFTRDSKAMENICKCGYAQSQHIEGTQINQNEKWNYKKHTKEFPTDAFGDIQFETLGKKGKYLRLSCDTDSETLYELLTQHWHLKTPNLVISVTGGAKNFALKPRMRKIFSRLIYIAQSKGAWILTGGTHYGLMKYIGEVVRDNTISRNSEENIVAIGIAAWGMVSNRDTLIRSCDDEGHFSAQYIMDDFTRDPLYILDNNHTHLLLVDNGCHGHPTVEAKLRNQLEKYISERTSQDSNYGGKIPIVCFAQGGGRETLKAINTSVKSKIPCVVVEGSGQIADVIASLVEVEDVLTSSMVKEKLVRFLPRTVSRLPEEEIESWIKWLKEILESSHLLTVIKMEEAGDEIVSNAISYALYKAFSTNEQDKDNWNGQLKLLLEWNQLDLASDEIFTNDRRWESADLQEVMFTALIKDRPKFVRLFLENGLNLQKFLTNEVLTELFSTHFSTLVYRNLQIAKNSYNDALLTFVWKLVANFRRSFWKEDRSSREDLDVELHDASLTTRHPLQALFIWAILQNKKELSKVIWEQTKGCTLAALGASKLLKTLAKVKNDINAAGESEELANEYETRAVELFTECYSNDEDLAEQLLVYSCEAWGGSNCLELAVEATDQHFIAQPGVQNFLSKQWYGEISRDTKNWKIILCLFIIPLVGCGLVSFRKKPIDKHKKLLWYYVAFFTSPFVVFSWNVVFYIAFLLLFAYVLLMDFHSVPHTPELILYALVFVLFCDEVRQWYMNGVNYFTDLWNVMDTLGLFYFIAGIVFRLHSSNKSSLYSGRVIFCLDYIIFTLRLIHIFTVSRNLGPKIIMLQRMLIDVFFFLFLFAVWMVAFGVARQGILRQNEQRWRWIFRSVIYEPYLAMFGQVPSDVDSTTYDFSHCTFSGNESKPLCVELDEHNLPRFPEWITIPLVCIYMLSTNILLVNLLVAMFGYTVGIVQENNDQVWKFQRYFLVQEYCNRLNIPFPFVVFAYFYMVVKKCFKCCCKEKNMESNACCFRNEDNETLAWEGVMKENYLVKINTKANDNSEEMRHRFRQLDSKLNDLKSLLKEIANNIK

CC[C@H]1C[C@@H]2CN3CCc4c([nH]c5ccc(OC)cc45)[C@](C(=O)OC)(C2)[C@H]13 [VOACANGINE]
inhibition: Active

Source: ChEMBL document CHEMBL3108739, “Activation and inhibition of thermosensitive TRP channels by voacangine, an alkaloid present in Voacanga africana, an African tree” (J Nat Prod, 2014)
